Measured values from US8007782B2, “Combination bacteriolytic therapy for the treatment of tumors” (priority 2003, dated 2011).

Legend:
[1] = Mortality following COBALT; type: in vivo, nude mice; conditions: deaths within one week, pooled xenograft models
C. novyi-NT = assay: Quantification of C. novyi-NT in tumors by real-time PCR; type: in vivo, C. novyi-NT in mice bearing HCT116 xenografts; conditions: versus spores without drug; HCT116 xenografts; SD printed +/−0.08 (HTI-286), +/−0.3 (docetaxel)
Protocol: Mice bearing HCT116 xenografts were treated with C. novyi-NT spores with or without HTI-286 (1.7 mg/kg) as described above. Following euthanasia 24-48 hr later, tumors were harvested, weighed, minced, and Dounce-homogenized. Genomic DNA was isolated using the Qiagen Genomic DNA Buffer Set and Genomic-tip 100/G. 25 ng of DNA was used in a PCR using the conditions described in (Vogelstein and Kinzler, 1999) The following primers specific for the C. novyi-NT phospholipase C gene were used: 5′-[…] (SEQ ID NO:1) and 5′-[…] (SEQ ID NO:2). No detectable primer dimers formed and no nonspecific amplification of mouse or xenograft genomic DNA occurred with these primers and PCR conditions. Real-time PCR was performed using an iCycler, and threshold cycle numbers were calculated using the iCycler Optical system interface software (Bio-Rad Lab, Hercules, Calif.). Averages of the threshold cycle number (Ct) of triplicate measurements per tumor were obtained, and three different tumors were studied for each treatment group. The results were expressed as the difference between the Ct of the treated tumor and the Ct of untreated controls, normalized to tumor weight.
Second, we directly tested the size of bacterial populations within tumors by measuring the number of bacteria at various times following intravenous injection of C. novyi-NT spores into mice bearing HCT116 xenografts. […]

In the case of `CN[C@H](C(=O)N[C@H](C(=O)N(C)[C@H](/C=C(\C)C(=O)O)C(C)C)C(C)(C)C)C(C)(C)c1ccccc1` [HTI-286, N,β,β-trimethyl-L-phenylalanyl-N^1-[(1S,2E)-3-carboxy-1-isopropylbut-2-enyl]-N^1,3-dimethyl-L-valinamide], the “# dead (treatment-related deaths)” value ([1]; drug dose 1.7 mg/kg) is reported as 3, the “dead (%)” value ([1]; drug dose 1.7 mg/kg) is reported as 2.9% and the “# dead (treatment-related deaths)” value ([1]; drug dose 1.9 mg/kg) is reported as 3. For the same molecule, the “dead (%)” value ([1]; drug dose 1.9 mg/kg) was 5.4%, the “# dead (treatment-related deaths)” value ([1]; drug dose 2.0 mg/kg) was 5 and the “dead (%)” value ([1]; drug dose 2.0 mg/kg) was 10.6%. The “increase in number of C. novyi-NT bacteria in tumor when co-injected with drug” value (C. novyi-NT) was 6.8 fold.
